Tested on: HIF-2α HIS TAG-PASB Domain
Assay: HIF-2α Scintillation Proximity Assay (SPA)
Format: binding
Conditions: compounds listed by structure and IUPAC name
Procedure: The percent inhibition was determined and IC50 values were calculated using the Dotmatics system based on the following equation: % inhibition=[(high control sample)/(high control low control)]×100.

Structure (SMILES)	IC50 [µM]
O=C(NO)c1c(S(=O)(=O)C(F)F)ccc(Oc2cc(F)cc(Cl)c2)c1Br [2-bromo-3-(3-chloro-5-fluoro-phenoxy)-6-(difluoromethylsulfonyl)benzenecarbohydroxamic acid]	> 100
O=C(O)c1c(S(=O)(=O)C(F)F)ccc(Oc2cc(F)cc(Cl)c2)c1Br [2-bromo-3-(3-chloro-5-fluoro-phenoxy)-6-(difluoromethylsulfonyl)benzoic acid]	> 100
N#Cc1cccc(Oc2cc(F)cc(Cl)c2)c1Br [2-bromo-3-(3-chloro-5-fluoro-phenoxy)benzonitrile]	> 100
CS(=O)(=O)c1ccc(Oc2cc(C#N)cc(Oc3ccc(S(C)(=O)=O)c4c3CC(F)(F)[C@H]4O)c2)c2c1[C@H](O)C(F)(F)C2 [3,5-bis[[(1S)-2,2-difluoro-1-hydroxy-7-methylsulfonyl-indan-4-yl]oxy]benzonitrile]	> 100
O=C(NCCO)c1c(S(=O)(=O)C(F)F)ccc(Oc2cc(F)cc(Cl)c2)c1C(F)F [3-(3-chloro-5-fluoro-phenoxy)-2-(difluoromethyl)-6-(difluoromethylsulfonyl)-N-(2-hydroxyethyl)benzamide]	> 100
NS(=O)(=O)c1cccc(Oc2cc(F)cc(Cl)c2)c1[N+](=O)[O-] [3-(3-chloro-5-fluoro-phenoxy)-2-nitro-benzenesulfonamide]	> 100
N#Cc1cc(F)cc(Oc2ccc(Cl)c3c2CCC3)c1 [3-(7-chloroindan-4-yl)oxy-5-fluoro-benzonitrile]	> 100
O=S(=O)(c1ccc(Oc2cc(F)cc(Cl)c2)c(CC(O)CO)c1)C(F)(F)F (stereo not drawn) [3-[2-(3-chloro-5-fluoro-phenoxy)-5-(trifluoromethylsulfonyl)phenyl]propane-1,2-diol]	> 100
N#Cc1cccc(Oc2ccc(C(F)(F)F)c(Cl)c2N)c1 [3-[2-amino-3-chloro-4-(trifluoromethyl)phenoxy]benzonitrile]	> 100
NC(=O)c1cc(F)cc(Oc2ccc(S(=O)(=O)C(F)(F)F)cc2Br)c1 [3-[2-bromo-4-(trifluoromethylsulfonyl)phenoxy]-5-fluoro-benzamide]	> 100
O=C(O)c1cc(F)cc(Oc2ccc(S(=O)(=O)C(F)(F)F)cc2Br)c1 [3-[2-bromo-4-(trifluoromethylsulfonyl)phenoxy]-5-fluoro-benzoic acid]	> 100
Cc1c(Oc2cc(F)cc(C#N)c2)ccc(S(=O)(=O)C(F)(F)F)c1C(O)CO (stereo not drawn) [3-[3-(1,2-dihydroxyethyl)-2-methyl-4-(trifluoromethylsulfonyl)phenoxy]-5-fluoro-benzonitrile]	> 100
N#Cc1cc(F)cc(Oc2ccc(S(=O)(=O)C(F)(F)F)c3c2C[C@@H](F)[C@@H]3N)c1 [3-[(1R,2R)-1-amino-2-fluoro-7-(trifluoromethylsulfonyl)indan-4-yl]oxy-5-fluoro-benzonitrile]	> 100
N#Cc1cccc(Oc2ccc(S(=O)(=O)C(F)F)c3cccnc23)c1 [3-[[5-(difluoromethylsulfonyl)-8-quinolyl]oxy]benzonitrile]	> 100
CN(C)[S+]([O-])c1ccc(Oc2cc(F)cc(Cl)c2)c(Br)c1 (stereo not drawn) [3-bromo-4-(3-chloro-5-fluoro-phenoxy)-N,N-dimethyl-benzenesulfinamide]	> 100
Cc1cc(S(C)(=O)=O)c2c(c1Oc1cc(F)cc(C#N)c1)CCC2O (stereo not drawn) [3-fluoro-5-(1-hydroxy-5-methyl-7-methylsulfonyl-indan-4-yl)oxy-benzonitrile]	> 100
Cc1cc(Oc2cc(F)cc(C#N)c2)c2c(c1S(C)(=O)=O)C(O)CC2 (stereo not drawn) [3-fluoro-5-(1-hydroxy-6-methyl-7-methylsulfonyl-indan-4-yl)oxy-benzonitrile]	> 100
CSc1ccc(Oc2cc(F)cc(C#N)c2)c2c1C(=O)CC2 [3-fluoro-5-(7-methylsulfanyl-1-oxo-indan-4-yl)oxy-benzonitrile]	> 100
CC1Cc2c(Oc3cc(F)cc(C#N)c3)ccc(S(C)(=O)=O)c2C1=O (stereo not drawn) [3-fluoro-5-((2-methyl-7-(methylsulfonyl)-1-oxo-2,3-dihydro-1H-inden-4-yl)oxy)benzonitrile]	> 100
C[C@H]1Cc2c(Oc3cc(F)cc(C#N)c3)ccc(S(C)(=O)=O)c2[C@H]1O [3-fluoro-5-(((1S,2S)-1-hydroxy-2-methyl-7-(methylsulfonyl)-2,3-dihydro-1H-inden-4-yl)oxy)benzonitrile]	> 100
Cn1cc(Oc2ccc(S(=O)(=O)C(F)(F)F)c3c2CCC3O)cn1 (stereo not drawn) [4-(1-methylpyrazol-4-yl)oxy-7-(trifluoromethylsulfonyl)indan-1-ol]	> 100

Structure (SMILES)	IC50 [µM]
CS(=O)(=O)c1ccc(Oc2cc(F)cc(F)c2)c2c1C(C#N)CC2 (stereo not drawn) [4-(3,5-difluorophenoxy)-7-methylsulfonyl-indane-1-carbonitrile]	> 100
O=S(=O)(c1ccc(Oc2cc(F)cc(F)c2)c2c1C(O)CC2)N1CCOCC1 (stereo not drawn) [4-(3,5-difluorophenoxy)-7-morpholinosulfonyl-indan-1-ol]	> 100
OC1CCc2c(Oc3cc(F)cc(Cl)c3)cccc21 (stereo not drawn) [4-(3-chloro-5-fluoro-phenoxy)indan-1-ol]	> 100
O=C1CCc2c(Oc3cc(F)cc(Cl)c3)cccc21 [4-(3-chloro-5-fluoro-phenoxy)indan-1-one]	> 100
O=S(=O)(c1ccc(Oc2cc(F)cc(Cl)c2)c2c1C1(CC2)OCCO1)C(F)F [4′-(3-chloro-5-fluoro-phenoxy)-7′-(difluoromethylsulfonyl]spiro[1,3-dioxolane-2,1′-indane]]	> 100
CNc1c(S(=O)(=O)C(F)(F)F)ccc(Oc2cc(F)cc(Cl)c2)c1C#N [6-(3-chloro-5-fluoro-phenoxy)-2-(methylamino)-3-(trifluoromethylsulfonyl)benzonitrile]	> 100
CC(=O)c1ccc(Oc2cc(F)cc(Cl)c2)c(Br)c1C#N [6-acetyl-2-bromo-3-(3-chloro-5-fluoro-phenoxy)benzonitrile]	> 100
O=S(=O)(c1ccc(Oc2cccn3cnnc23)c2c1[C@H](O)CC2)C(F)(F)F [(1R)-4-([1,2,4]triazolo[4,3-a]pyridin-8-yloxy)-7-(trifluoromethylsulfonyl)indan-1-ol]	> 100
CS(=O)(=O)c1cccc(Oc2ccc(S(=O)(=O)C(F)(F)F)c3c2CC(F)(F)[C@H]3O)c1 [(1S)-2,2-difluoro-4-(3-methylsulfonylphenoxy)-7-(trifluoromethylsulfonyl)indan-1-ol]	> 100
CNC(=O)/C=C/c1c(S(=O)(=O)C(F)(F)F)ccc(Oc2cc(F)cc(C#N)c2)c1C [(E)-3-[3-(3-cyano-5-fluoro-phenoxy)-2-methyl-6-(trifluoromethylsulfonyl)phenyl]-N-methyl-prop-2-enamide]	> 100
Cc1c(Oc2cc(F)cc(C#N)c2)ccc(S(=O)(=O)C(F)(F)F)c1/C=C/C(N)=O [(E)-3-[3-(3-cyano-5-fluoro-phenoxy)-2-methyl-6-(trifluoromethylsulfonyl)phenyl]prop-2-enamide]	> 100
Cc1c(Oc2cc(F)cc(C#N)c2)ccc(S(=O)(=O)C(F)(F)F)c1/C=C/C(=O)O [(E)-3-[3-(3-cyano-5-fluoro-phenoxy)-2-methyl-6-(trifluoromethylsulfonyl)phenyl]prop-2-enoic acid]	> 100
N#Cc1cc(F)cc(Oc2ccc(/S(CF)=N/C(=O)C(F)(F)F)c3c2CC[C@H]3O)c1 (stereo partly drawn) [N-((R)-7-(3-cyano-5-fluorophenoxy)-3-hydroxy-2,3-dihydro-1H-inden-4-yl)(fluoromethyl)-λ^4-sulfanylidene)-2,2,2-trifluoroacetamide]	> 100
CS(=O)(=O)c1ccc(Oc2cc(F)cc(F)c2)c2c1C(NC(=O)c1ccc(F)cc1)C(F)(F)C2 (stereo not drawn) [N-[4-(3,5-difluorophenoxy)-2,2-difluoro-7-methylsulfonyl-indan-1-yl]-4-fluoro-benzamide]	> 100
CC(=O)NC1c2c(S(C)(=O)=O)ccc(Oc3cc(F)cc(F)c3)c2CC1(F)F (stereo not drawn) [N-[4-(3,5-difluorophenoxy)-2,2-difluoro-7-methylsulfonyl-indan-1-yl]acetamide]	> 100
CC(C)(C)[S+]([O-])NC1c2c(S(C)(=O)=O)ccc(Oc3cc(F)cc(C#N)c3)c2CC1(F)F (stereo not drawn) [N-[4-(3-cyano-5-fluoro-phenoxy)-2,2-difluoro-7-methylsulfonyl-indan-1-yl]-2-methyl-propane-2-sulfinamide]	> 100
O=S(=O)(c1ccc(Oc2cc(F)cc(Cl)c2)c(Cl)c1CNC1CCOC1)C(F)F (stereo not drawn) [N-[[2-chloro-3-(3-chloro-5-fluoro-phenoxy)-6-(difluoromethylsulfonyl)phenyl]methyl]tetra-hydrofuran-3-amine]	> 100
N=S(=O)(c1ccc(Cl)c(Br)c1Oc1cc(F)cc(Cl)c1)C(F)(F)F (stereo not drawn) [[3-bromo-4-chloro-2-(3-chloro-5-fluoro-phenoxy)phenyl]-imino-oxo-(trifluoromethyl)-λ^6-sulfane]	> 100
Cc1c(Oc2cc(F)cc(C#N)c2)ccc(S(=O)(=O)C(F)(F)F)c1/C=C/C(=O)OCc1ccccc1 [benzyl (E)-3-[3-(3-cyano-5-fluoro-phenoxy)-2-methyl-6-(trifluoromethylsulfonyl)phenyl]prop-2-enoate]	> 100
CCCCOC(=O)/C=C/c1c(S(=O)(=O)C(F)(F)F)ccc(Oc2cc(F)cc(C#N)c2)c1C [butyl (E)-3-[3-(3-cyano-5-fluoro-phenoxy)-2-methyl-6-(trifluoromethylsulfonyl)phenyl]prop-2-enoate]	> 100
COC(=O)c1cc(F)cc(Oc2ccc(S(=O)(=O)C(F)(F)F)cc2Br)c1 [methyl 3-[2-bromo-4-(trifluoromethylsulfonyl)phenoxy]-5-fluoro-benzoate]	> 100

From patent US10597366B2, “Aryl ethers and uses thereof” (Peloton Therapeutics, Inc., priority 2013, dated 2020)
